The test system of assay [1] is Tfn-A594 uptake in U2OS cells. The experiment in a line: Automated quantitative CME assay: Tfn-A594 uptake. In kind it is cell-based. The following applies: for IC50: Homo sapiens, read-out: CME IC50; for IC50 / CME IC50 (μM): Tfn-A594 uptake, U2OS, 30-min preincubation, serum-free. Here is the method:
To determine whether the Dyngo compounds are widespread cell‐permeable and endocytosis inhibitors, CME of fluorescent Tfn was compared in an automated quantitative endocytosis assay in U2OS cells. The assay consisted of over 1200 cells under serum‐free conditions; after preincubation with each analog for 30 min the uptake of fluorescent Tfn was measured. We refer to this endocytosis as non‐neuronal CME to distinguish it from CME of synaptic vesicles in presynaptic terminals of neurons, which is referred to as synaptic vesicle endocytosis (SVE). In these cells, Tfn uptake is presumed to be mediated by dynamin II, because this is the only isoform of dynamin that they express, as determined by western blot (Figure S6). […] There was no apparent correlation between in vitro and in‐cell activity, with potent dynamin‐active compounds like 1a and 14a having no effect on non‐neuronal CME (Table 1). This might be explained by low membrane permeability of these analogs, their cellular metabolism or rapid cellular efflux mechanisms.
Quantitative analysis of the inhibition of Alexa 594‐Tfn endocytosis in U2OS cells was performed on large numbers of serum‐starved cells as described 10. Synaptic vesicle recycling in cultured CGNs was monitored using FM1‐43 as described 57 (see Supporting Information). Dynamin‐independent endocytosis was measured using internalization of CT in NIH3T3 cells (using Tfn as a control) as described previously 58 with minor changes (see Supporting Information). The average number of cells for each data point was ˜1200. IC50 values were calculated using GraphPad Prism 5 and data were expressed as mean ± 95% confidence interval (CI) for three wells and ˜1200 cells.

For assay [2], the target named is native sheep brain dynamin I (Ovis aries, UniProt A0ACI6PDC7). The experiment in a line: PS liposome-stimulated (helical) dynamin I GTPase assay (Malachite Green). The format is biochemical. Particulars: IC50 with versus without Tween-80. The text has this: Recombinant dynamin I was used only for the data in Table 2. The dynamin antibodies were from: Dynamin I—in‐house YF2 antibodies, raised in rabbits against two different synthetic peptides: dynamin I 629‐647 ([…]) and dynamin I 765–778 ([…]), used at 1/2000 dilution, as previously described 53; Dynamin II—Santa Cruz (C‐18, sc‐6400, used at 1/1000) and Dynamin III—Santa Cruz (P‐13, sc‐69472, used at 1/500 dilution).
The Malachite Green colorimetric GTPase assay was as described 10. Dynamin I activity was measured in its SAI activity state or was stimulated by three different methods. As each stimulus activates dynamin to different extents, each assay required different dynamin concentrations. First, maximal dynamin activity was stimulated by sonicated PS liposomes 10. […] Finally, dynamin (500 nM) SAI activity was measured using high concentrations of dynamin, which promote its cooperative self‐assembly into rings (but not helices) 26. […] After the Vmax and Km values were determined, the data were transformed using the Lineweaver–Burke equation, 1/v = 1/Vmax + (Km/Vmax)(1/[S]).

The test system of assay [3] is dynamin. On the set-up: method as in PMID 19459681. The following applies: read-out: dynamin inhibitor potency; cited from earlier work.

The structures appear in SMILES notation. “Also recorded” adds a separate entry of the source.

native sheep brain dynamin I, sequence (A0ACI6PDC7 entry or part of it): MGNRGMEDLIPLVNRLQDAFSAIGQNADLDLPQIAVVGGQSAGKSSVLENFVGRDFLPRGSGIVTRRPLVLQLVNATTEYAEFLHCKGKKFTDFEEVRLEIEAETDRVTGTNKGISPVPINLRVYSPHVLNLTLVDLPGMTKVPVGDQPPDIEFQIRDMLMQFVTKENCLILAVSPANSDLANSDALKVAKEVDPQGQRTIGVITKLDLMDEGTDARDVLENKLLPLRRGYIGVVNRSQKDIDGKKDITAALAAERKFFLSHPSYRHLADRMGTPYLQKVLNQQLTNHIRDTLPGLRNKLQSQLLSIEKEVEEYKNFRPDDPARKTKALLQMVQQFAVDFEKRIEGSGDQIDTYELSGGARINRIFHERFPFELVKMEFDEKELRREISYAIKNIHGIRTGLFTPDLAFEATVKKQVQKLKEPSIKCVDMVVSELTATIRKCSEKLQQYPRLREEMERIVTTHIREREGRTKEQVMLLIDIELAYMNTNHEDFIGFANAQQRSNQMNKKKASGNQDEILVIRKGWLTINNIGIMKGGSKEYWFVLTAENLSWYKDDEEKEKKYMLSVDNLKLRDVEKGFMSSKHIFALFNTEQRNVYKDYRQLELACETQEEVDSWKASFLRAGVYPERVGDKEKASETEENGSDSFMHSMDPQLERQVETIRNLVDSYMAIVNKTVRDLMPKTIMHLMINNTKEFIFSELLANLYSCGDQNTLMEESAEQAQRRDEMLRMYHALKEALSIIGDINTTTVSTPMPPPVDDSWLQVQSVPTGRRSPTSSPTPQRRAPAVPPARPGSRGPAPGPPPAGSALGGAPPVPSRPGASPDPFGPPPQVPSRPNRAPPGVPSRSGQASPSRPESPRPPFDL

As to `O=C(N/N=C/c1cc(O)c(O)c(O)c1)c1cc2ccccc2cc1O` [5a, (E)-3-Hydroxy-N'-(3,4,5-trihydroxybenzylidene) -2-naphthohydrazide], the IC50 in assay [1] was found to be 6.2 ± 2 µM. Further, the “times more potent than dynasore in CME assay” value in assay [1] (same conditions, U2OS Tfn uptake) was “six times more potent”.

Take `CC(=O)Nc1ccc(/C=N/NC(=O)c2cc3ccccc3cc2O)cc1` [10a, (E)-N-(4-{[2-(3-hydroxy-2-naphthoyl)hydrazono]methyl}phenyl)acetamide]: the “CME IC50 (μM)” value in assay [1] is given as “Not active (n = 2)”.

As for `O=C(N/N=C/c1ccc(O)c(O)c1O)c1cc2ccccc2cc1O` [3a, (E)-3-Hydroxy-N'-(2,3,4-trihydroxybenzylidene) -2-naphthohydrazide], in assay [1], the IC50 came to 9.8 ± 1.5 µM.

Regarding `O=C(N/N=C/c1ccc2nonc2c1)c1cc2ccccc2cc1O` [13a, (E)-N'-(benzo[c][1,2,5]oxadiazol-5-ylmethylene)-3-hydroxy-2-naphthohydrazide], the “CME IC50 (μM)” value in assay [1] is reported as “Not active (n = 3)”.

Regarding `O=C(N/N=C/c1cc(O)cc(O)c1)c1cc2ccccc2cc1O` [8a, (E)-N'-(3,5-Dihydroxybenzylidene)-3-hydroxy-2-naphthohydrazide], the IC50 in assay [1] is 179 ± 20 µM.

`O=C(N/N=C/c1ccc(O)cc1O)c1cc2ccccc2cc1O` [1a, (E)-N'-(2,4-Dihydroxybenzylidene)-3-hydroxy-2-naphthohydrazide]: the “CME IC50 (μM)” value in assay [1] is “little or no effect; also recorded: Not active (n = 3)”. Further, in assay [2], the “detergent (Tween) sensitivity: fold potency change on removal of Tween” value is on record as below 10 fold.

For the compound `Cc1[nH]c2ccccc2c1/C=N/NC(=O)c1cc2ccccc2cc1O` [11a, (E)-3-hydroxy-N'-((2-methyl-1H-indol-3-yl)methylene)-2-naphthohydrazide], the IC50 in assay [1] amounted to 63.4 ± 4.4 µM.

`O=C(N/N=C/c1ccc2nsnc2c1)c1cc2ccccc2cc1O` [14a, (E)-N'-(benzo[c][1,2,5]thiadiazol-5-ylmethylene)-3-hydroxy-2-naphthohydrazide]: the “CME IC50 (μM)” value in assay [1] was “no effect; also recorded: Not active (n = 4)”.

`O=C(NN=Cc1cnc2ccccc2n1)c1cc2ccccc2cc1O` [12a, 3-Hydroxynaphthalene-2-carboxylic acid quinoxaline-2-ylmethylenehydrazide]: the “CME IC50 (μM)” value in assay [1] is “Not active (n = 2)”.

For `CCCCCCCCNC(=O)C(C#N)=Cc1cn(CCN(C)C)c2ccccc12` [Dynole 34‐2, 2‐cyano‐3‐(1‐(2‐(dimethylamino)ethyl)‐1H‐indol‐3‐yl)‐N‐octylacrylamide], in assay [3], the IC50 is 1300 ± 300 nM.

Values taken from article PMC4138991, “Building a Better Dynasore: The Dyngo Compounds Potently Inhibit Dynamin and Endocytosis” (Traffic (Copenhagen, Denmark), 2013).
